Columns and labels:
DCAF15/RBM39 = DCAF15/RBM39 (Homo sapiens, UniProt Q14498+Q66K64); assay: AlphaLISA compound-induced DCAF15-RBM39 ternary complex formation; assay type: binding; settings: His-tagged DCAF15 complex and biotin-carrying RBM39
Description: Example 6: Quantitative Evaluation of Compound-Induced Ternary Complex Formation Using Amplified Luminescent Proximity Homogeneous Assay
Compound-induced DCAF15-RBM39 ternary complex formation was monitored using AlphaLISA® assays (Perkin Elmer, Waltham, MA). Test compounds were first collected in a 384-well microplate (cat. #781280, Grenier Bio-One, Monroe, NC) as 2 mM stocks in 100% dimethyl sulfoxide (DMSO). These stocks were then serially diluted in DMSO by 3-fold into a new plate (cat. #781280, Grenier Bio-One, Monroe, NC) using a Mosquito HTS dispenser (mosquito@ HTS, SPT Labtech, Boston, MA). 0.2 ul of these diluted stocks were then dispensed into a 384-well Optiplate (cat. #6007290, Perkin Elmer, Waltham, MA) in duplicate wells, to assemble the final assay plate consisting of duplicated dose ranges. Separately, a protein mixture consisting of His-tagged DCAF15 complex and biotin-carrying RBM39, each at 408 nM (2.04×), was prepared in 50 mM HEPES, pH 7.5, 100 mM NaCl, 2 mM MgCl2, 0.1% BSA, 2 mM TCEP, 0.05% Tween-20 (dilution buffer). 9.8 ul of this protein mixture was then mixed with the compounds in the assay plate and incubated for one hour at room temperature. Reaction mixtures with no compounds added were included as negative controls, while a His-tagged and biotinylated GST protein was included to track general assay performance. Nickel Chelate AlphaLISA Acceptor beads (cat. #AL108M, Perkin Elmer, MA) and AlphaScreen Streptavidin Donor beads (cat. #6760002, Perkin Elmer, Waltham, MA) were prepared separately in the dilution buffer as 4× stocks (80 ug/ml). The beads were then added to the assay plate sequentially with incubation at room temperature for 1-2 hours after each addition. Signals were recorded using EnVision 2104 Multilabel Plate Reader (Perkin Elmer, Waltham, MA) and titration curves were generated in GraphPad Prism (7.00, GraphPad, La Jolla, CA).

DCAF15 = DCAF15 (Homo sapiens, UniProt Q66K64); assay: HTRF competition assay, binary interaction between compounds and DCAF15; assay type: binding; settings: competition with Alexa Fluor 647 tracer, His-tagged DCAF15 complex
Description: Example 7: Measurement of Binary Interaction Between Compounds And DCAF15 Using Homogeneous Time Resolved Fluorescence (HTRF)
DCAF15 interactions with test compounds were monitored using HTRF competition assays (Cisbio, Bedford, MA). Test compounds were first collected in a 384-well microplate (cat. #781280, Grenier Bio-One, Monroe, NC) as 10 mM stocks in 100% dimethyl sulfoxide (DMSO). A second stock plate (cat. #781280, Grenier Bio-One, Monroe, NC) was prepared through 3-fold serial dilution in DMSO of the afore-mentioned stocks using a Mosquito HTS dispenser (mosquito@ HTS, SPT Labtech, Boston, MA). 0.2 ul of these diluted stocks were then dispensed into a 384-well Optiplate (cat. #6007290, Perkin Elmer, Waltham, MA) in duplicate wells, to assemble the assay plate. The tracer molecule containing an Alexa Fluor 647 probe was prepared in 25 mM HEPES pH 7.5, 100 mM NaCl, 0.1 mg/ml BSA, 0.005% Tween 20, 0.5 mM TCEP (dilution buffer) to 612 nM (2.04×). Separately, His-tagged DCAF15 complex was prepared at 32 nM (4×) in the dilution buffer, and mAb Anti-6His-Eu cryptate Gold (cat. #61H12KLA, Cisbio, Bedford, MA) at 4× dilution in the detection buffer (cat. #61 DB9RDF, Cisbio, Bedford, MA). These two solutions were mixed and incubated for 15 min at room temperature. 9.8 ul of the tracer solution and 10 ul of the DCAF15/mAb Anti-6His-Eu cryptate Gold mixture were added sequentially to each well in the assay plate. Reaction mixtures with no DCAF15 added were included as positive controls. The final mixture was incubated for an hour at room temperature and spun down briefly before data collection at 615 nm and 666 nm using En Vision 2104 Multilabel Plate Reader (Perkin Elmer, Bedford, MA). Binding was estimated based on ratiometric analysis and titration curves were generated in GraphPad Prism (7.00, GraphPad, La Jolla, CA).

| Compound | EC50 (DCAF15/RBM39) [µM] | IC50 (DCAF15) [µM] |
| --- | --- | --- |
| O=C1CC[C@H](NC(=O)c2cccc(S(=O)(=O)Nc3ccc(Cl)c4c(Cl)c[nH]c34)c2F)CN1 [Compound 156] | < 1 | 1 to 10 |
| CC[C@H](NC(=O)c1cccc(S(=O)(=O)Nc2ccc(Cl)c3c(Cl)c[nH]c23)c1F)c1ccc2c(c1)OCCO2 [Compound 210] | 1 to 10 | 1 to 10 |
| CN1CCN(C(=O)c2ccc(S(=O)(=O)Nc3ccc(Cl)c4c(Cl)c[nH]c34)cc2)CC1 [Compound 223] | < 1 | 1 to 10 |
| O=S(=O)(Nc1ccc(Cl)c2c(Cl)c[nH]c12)c1ccc(OCCCCc2ccccn2)cc1 [Compound 140] | 1 to 10 | 1 to 10 |
| CS(=O)(=O)c1ccc(CCOc2cccc(S(=O)(=O)Nc3ccc(Cl)c4c(Cl)c[nH]c34)c2)cc1 [Compound 76] | 1 to 10 | > 100 |
| O=C(NCCCC(=O)N1CCCC1)c1cccc(S(=O)(=O)Nc2ccc(Cl)c3c(Cl)c[nH]c23)c1F [Compound 206] | < 1 | < 1 |
| O=S(=O)(Nc1ccc(Cl)c2c(Cl)c[nH]c12)c1ccc(O[C@@H]2C[C@@H]3C[C@@H]3C2)cc1 [Compound 21] | 1 to 10 | > 100 |
| O=C(NCCOCC1CC1)c1cccc(S(=O)(=O)Nc2ccc(Cl)c3c(Cl)c[nH]c23)c1F [Compound 186] | 1 to 10 | 1 to 10 |
| CCN(CC)C(=O)c1ccc(CNC(=O)c2cccc(S(=O)(=O)Nc3ccc(Cl)c4c(Cl)c[nH]c34)c2F)cc1 [Compound 170] | 1 to 10 | 1 to 10 |
| O=C(N[C@H]1CCCCNC1=O)c1cccc(S(=O)(=O)Nc2ccc(Cl)c3c(Cl)c[nH]c23)c1F [Compound 160] | < 1 | < 1 |
| O=C(c1cccc(S(=O)(=O)Nc2ccc(Cl)c3c(Cl)c[nH]c23)c1F)N1CCC(c2ccnc(C(F)F)c2)CC1 [Compound 221] | < 1 | < 1 |
| O=S(=O)(Nc1ccc(Cl)c2c(Cl)c[nH]c12)c1ccc(OCC2COC2)cc1 [Compound 40] | < 1 | > 100 |
| O=S(=O)(Nc1ccc(Cl)c2c(Cl)c[nH]c12)c1ccc(O[C@H]2CC[C@H](N3CCOCC3)CC2)cc1 [Compound 17] | < 1 | 10 to 100 |
| O=S(=O)(Nc1ccc(Cl)c2c(Cl)c[nH]c12)c1ccc(OCc2cccc(OC(F)F)c2)cc1 [Compound 54] | 1 to 10 | > 100 |
| CC(C)C(=O)Nc1cccc(CNC(=O)c2cccc(S(=O)(=O)Nc3ccc(Cl)c4c(Cl)c[nH]c34)c2F)c1 [Compound 168] | 1 to 10 | 1 to 10 |
| O=S(=O)(Nc1ccc(Cl)c2c(Cl)c[nH]c12)c1ccc(OC2CC3(CNC3)C2)cc1 [Compound 25, 4-((2-azaspiro[3.3]heptan-6-yl)oxy)-N-(3,4-dichloro-1H-indol-7-yl)benzenesulfonamide] | < 1 | 1 to 10 |
| O=c1oc2ccccc2n1CCCOc1cccc(S(=O)(=O)Nc2ccc(Cl)c3c(Cl)c[nH]c23)c1 [Compound 112] | 1 to 10 | > 100 |
| Cc1ccc(CCNC(=O)c2ccc(S(=O)(=O)Nc3ccc(Cl)c4c(Cl)c[nH]c34)c(F)c2)o1 [Compound 199] | 1 to 10 | 1 to 10 |
| Cn1ncnc1COc1ccc(S(=O)(=O)Nc2ccc(Cl)c3c(Cl)c[nH]c23)cc1 [Compound 67] | < 1 | 1 to 10 |
| Cc1nc2c(n1C)CCN(C(=O)c1cccc(S(=O)(=O)Nc3ccc(Cl)c4c(Cl)c[nH]c34)c1F)C2 [Compound 228] | < 1 | < 1 |
| O=S(=O)(Nc1ccc(Cl)c2c(Cl)c[nH]c12)c1cccc(OCc2cccc(OC(F)F)c2)c1 [Compound 53] | 1 to 10 | > 100 |
| O=S(=O)(Nc1ccc(Cl)c2c(Cl)c[nH]c12)c1cccc(OCCCN2CC3(COC3)C2)c1 [Compound 108] | < 1 | > 100 |

| Compound | EC50 (DCAF15/RBM39) [µM] | IC50 (DCAF15) [µM] |
| --- | --- | --- |
| O=S(=O)(Nc1ccc(Cl)c2c(Cl)c[nH]c12)c1cccc(OC[C@H]2[C@@H]3CNC[C@@H]32)c1 [Compound 47] | < 1 | 10 to 100 |
| CC1(CCOc2ccc(S(=O)(=O)Nc3ccc(Cl)c4c(Cl)c[nH]c34)cc2)CCNCC1 [Compound 75] | < 1 | 1 to 10 |
| Cc1cnc(CNC(=O)c2cccc(S(=O)(=O)Nc3ccc(Cl)c4c(Cl)c[nH]c34)c2F)cn1 [Compound 183] | < 1 | 1 to 10 |
| N#Cc1ccc(Oc2ccc(S(=O)(=O)Nc3ccc(Cl)c4c(Cl)c[nH]c34)cc2)cc1 [Compound 37] | 1 to 10 | > 100 |
| O=C(NCCc1ccccn1)c1cccc(S(=O)(=O)Nc2ccc(Cl)c3c(Cl)c[nH]c23)c1F [Compound 200] | < 1 | < 1 |
| CCOCCOc1ccc(S(=O)(=O)Nc2ccc(Cl)c3c(Cl)c[nH]c23)cc1C(C)C [Compound 232] | 1 to 10 | > 100 |
| NC[C@H]1CC[C@H](Oc2ccc(S(=O)(=O)Nc3ccc(Cl)c4c(Cl)c[nH]c34)cc2)CC1 [Compound 15] | 1 to 10 | 1 to 10 |
| COc1cccc(Oc2ccc(CNC(=O)c3ccc(S(=O)(=O)Nc4ccc(Cl)c5c(Cl)c[nH]c45)c(F)c3)cn2)c1 [Compound 182] | > 100 | > 100 |
| O=S(=O)(Nc1ccc(Cl)c2c(Cl)c[nH]c12)c1cccc(OCc2ccc3c(c2)CNC3)c1 [Compound 65] | < 1 | > 100 |
| O=S(=O)(Nc1ccc(Cl)c2c(Cl)c[nH]c12)c1cccc(OC2CCC3(CCNCC3)CC2)c1 [Compound 32] | 1 to 10 | 10 to 100 |
| O=S(=O)(Nc1ccc(Cl)c2c(Cl)c[nH]c12)c1cccc(OCCCN2CCCc3ccccc32)c1 [Compound 114] | 1 to 10 | > 100 |
| CN(C)C(=O)C[C@H](NC(=O)c1cccc(S(=O)(=O)Nc2ccc(Cl)c3c(Cl)c[nH]c23)c1F)c1ccccc1 [Compound 196] | 1 to 10 | 1 to 10 |
| NC1CCC(Oc2ccc(S(=O)(=O)Nc3ccc(Cl)c4c(Cl)c[nH]c34)cc2)CC1 (centres unmarked) [Compound 3] | < 1 | 1 to 10 |
| O=c1oc2ccccc2n1CCCOc1ccc(S(=O)(=O)Nc2ccc(Cl)c3c(Cl)c[nH]c23)cc1 [Compound 113] | 1 to 10 | > 100 |
| O=C(NCC1CCN(CCCc2ccccc2)CC1)c1cccc(S(=O)(=O)Nc2ccc(Cl)c3c(Cl)c[nH]c23)c1F [Compound 166] | < 1 | 1 to 10 |
| CCS(=O)(=O)CCNC(=O)c1cccc(S(=O)(=O)Nc2ccc(Cl)c3c(Cl)c[nH]c23)c1F [Compound 190] | < 1 | 1 to 10 |
| O=S(=O)(Nc1ccc(Cl)c2c(Cl)c[nH]c12)c1ccc(OCCCc2ccc3c(c2)OCO3)cc1 [Compound 110] | > 100 | > 100 |
| COCCOCCCNC(=O)c1cccc(S(=O)(=O)Nc2ccc(Cl)c3c(Cl)c[nH]c23)c1F [Compound 202] | < 1 | 1 to 10 |
| Cc1ccccc1Oc1ccccc1CNC(=O)c1ccc(S(=O)(=O)Nc2ccc(Cl)c3c(Cl)c[nH]c23)c(F)c1 [Compound 173] | > 100 | > 100 |
| CN1CC[C@@H](c2ccc(F)cc2)[C@H](COc2cccc(S(=O)(=O)Nc3ccc(Cl)c4c(Cl)c[nH]c34)c2)C1 [Compound 41] | < 1 | 1 to 10 |
| O=S(=O)(Nc1ccc(Cl)c2c(Cl)c[nH]c12)c1cccc(O[C@@H]2C[C@@H]3C[C@@H]3C2)c1 [Compound 20] | 1 to 10 | > 100 |
